The values that follow come from patent publication US9365572B2, “PI3K and/or mTOR inhibitor” (XUANZHU PHARMA CO., LTD., priority 2012, dated 2016).

In one test the target is ERK2 (Homo sapiens (Human), UniProt P28482). The test can be described thus: Kinase selectivity, Mobility shift assay. The format is biochemical. Here is the method: (§1) Object: In this assay, the inhibitory activity of the test substance on the kinases listed in Table 3 was determined, and therefore the selectivity of the present compound was determined.
(§2) Except for the BRAF V600E kinase in Table 3, the Mobility shift assay was used for other kinases.
(§3) 1. Preparation of Agents:
(§4) • 1.1 1-fold kinase buffer without MnCl2: 50 mM HEPES, pH 7.5, 0.0015% Brij-35, 10 mM MgCl2, 2 mM DTT. • 1.2 1-fold kinase buffer with MnCl2: 50 mM HEPES, pH 7.5, 0.0015% Brij-35, 10 mM MgCl2, 10 mM MnCl2, 2 mM DTT. • 1.3 Termination solution: 100 mM HEPES, pH 7.5, 0.0015% Brij-35, 0.2% Coating Reagent#3, 50 mM EDTA. • 1.4 2.5-fold kinase solution: The kinase was added to the 1-fold kinase buffer to form a 2.5-fold kinase solution. • 1.5 2.5-fold substrate solution: FAM fluorescence-labelled polypeptide and ATP were added to the 1-fold kinase buffer to form a 2.5-fold substrate solution. 2. Preparation of 5-fold compound
(§5) The final test concentration of the compound was 10 μM at maximum. Firstly, a 50-fold concentration (i.e. 500 μM) was prepared with 100% DMSO. The compound was diluted with 100% DMSO by 5 folds at 5 concentrations (successively 500 μM, 100 μM, 20 μM, 4 μM, and 0.8 μM). After diluting with 1-fold kinase buffer by 10 folds, 5 μl of the samples were transferred to a 384-well reaction plate. Two negative control wells and two positive control wells were set at each line respectively. Replication was made in a 96-well plate in five concentrations of 5-fold compound. 10% DMSO was added to the positive control well, and 5 μl of EDTA (250 mM) was added to the negative control well.
(§6) • 3.1 To the 384-well reaction plate was added 5-fold compound dissolved in 10% DMSO at 5 μl/well. • 3.2 To the 384-well reaction plate was added 2.5-fold kinase solution at 10 μl/well. […] 4. […] 2. […] 3. […] 4.

In another test the target is IRAK4 (Homo sapiens (Human), UniProt Q9NWZ3). Briefly: Kinase selectivity, Mobility shift assay. In kind it is biochemical. Here is the method:
as §1, §2, §3, §4, §5, §6

For the next test, the target named is Adrenergic α2A (Homo sapiens (Human), UniProt P08913). Briefly: Radioligand binding assay No. 203620. The following applies: test substance 10 μM, read-out: Inhibitory rate (%), Adrenergic α2A.
For a further test, the target named is Muscarinic M1 (Homo sapiens (Human), UniProt P11229). The test can be described thus: Radioligand binding assay No. 252610. The following applies: test substance 10 μM, read-out: Inhibitory rate (%), Muscarinic M1.
The target of another test is Muscarinic M3 (Homo sapiens (Human), UniProt P20309). Briefly: Radioligand binding assay No. 252810. The following applies: test substance 10 μM, read-out: Inhibitory rate (%), Muscarinic M3.
The target in another test is Cannabinoid CB1 (Homo sapiens (Human), UniProt P21554). Briefly: Radioligand binding assay No. 217030. The following applies: test substance 10 μM, read-out: Inhibitory rate (%), Cannabinoid CB1.
A further test has as its system Nicotinic Acetylcholine. The test can be described thus: Radioligand binding assay No. 258590. The following applies: test substance 10 μM; Human.
In a further test the test system is Phorbol Ester. Briefly: Radioligand binding assay No. 264500. The following applies: test substance 10 μM; mouse.
The target of a further test is Bradykinin B1 (Homo sapiens (Human), UniProt P46663). Briefly: Radioligand binding assay No. 212510. The following applies: test substance 10 μM, read-out: Inhibitory rate (%), Bradykinin B1.
The target of a further test is Adrenergic α1D (Homo sapiens (Human), UniProt P25100). Briefly: Radioligand binding assay No. 203400. The following applies: test substance 10 μM, read-out: Inhibitory rate (%), Adrenergic α1D.
Chain of Adrenergic α1D (P25100 whole entry): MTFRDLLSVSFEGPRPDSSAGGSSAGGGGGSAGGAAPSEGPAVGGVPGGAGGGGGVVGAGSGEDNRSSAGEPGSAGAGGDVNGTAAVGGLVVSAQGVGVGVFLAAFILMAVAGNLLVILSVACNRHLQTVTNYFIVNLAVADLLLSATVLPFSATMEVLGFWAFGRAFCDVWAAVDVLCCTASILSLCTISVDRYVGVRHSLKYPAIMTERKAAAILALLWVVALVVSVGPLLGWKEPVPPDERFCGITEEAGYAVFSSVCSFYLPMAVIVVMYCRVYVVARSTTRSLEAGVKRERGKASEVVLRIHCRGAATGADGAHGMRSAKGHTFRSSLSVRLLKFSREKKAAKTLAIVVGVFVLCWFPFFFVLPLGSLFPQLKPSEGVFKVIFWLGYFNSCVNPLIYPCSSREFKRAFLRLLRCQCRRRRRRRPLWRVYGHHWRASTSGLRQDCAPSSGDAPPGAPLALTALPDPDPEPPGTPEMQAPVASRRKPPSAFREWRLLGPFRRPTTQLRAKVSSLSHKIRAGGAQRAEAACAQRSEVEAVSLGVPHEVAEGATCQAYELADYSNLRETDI

Chain of Adrenergic α2A (P08913 whole entry): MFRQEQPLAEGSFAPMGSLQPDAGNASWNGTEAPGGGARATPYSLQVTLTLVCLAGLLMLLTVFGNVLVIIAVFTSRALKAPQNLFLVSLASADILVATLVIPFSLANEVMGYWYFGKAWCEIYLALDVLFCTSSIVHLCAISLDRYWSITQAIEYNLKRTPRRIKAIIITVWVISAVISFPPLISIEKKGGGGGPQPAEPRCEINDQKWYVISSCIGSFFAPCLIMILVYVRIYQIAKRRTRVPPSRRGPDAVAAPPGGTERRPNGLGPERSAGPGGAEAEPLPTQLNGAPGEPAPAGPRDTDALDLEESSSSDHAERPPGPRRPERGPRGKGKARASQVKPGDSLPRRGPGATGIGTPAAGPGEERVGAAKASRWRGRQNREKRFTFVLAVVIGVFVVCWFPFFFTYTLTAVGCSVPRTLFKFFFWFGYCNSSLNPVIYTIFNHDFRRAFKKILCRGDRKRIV
Chain of IRAK4 (Q9NWZ3 whole entry, species assumed): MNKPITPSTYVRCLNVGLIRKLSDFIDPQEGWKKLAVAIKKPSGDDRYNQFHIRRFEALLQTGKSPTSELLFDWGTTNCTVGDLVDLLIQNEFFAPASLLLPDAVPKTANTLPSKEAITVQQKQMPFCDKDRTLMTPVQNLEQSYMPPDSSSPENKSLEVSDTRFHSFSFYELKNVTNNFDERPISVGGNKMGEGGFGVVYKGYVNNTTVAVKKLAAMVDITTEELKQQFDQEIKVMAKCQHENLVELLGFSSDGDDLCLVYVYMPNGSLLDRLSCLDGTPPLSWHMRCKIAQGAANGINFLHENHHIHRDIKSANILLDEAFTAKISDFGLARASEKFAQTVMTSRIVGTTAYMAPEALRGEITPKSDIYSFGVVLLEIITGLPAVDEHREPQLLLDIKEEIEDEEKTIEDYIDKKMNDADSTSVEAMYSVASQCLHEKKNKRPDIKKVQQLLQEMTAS
Chain of Muscarinic M3 (P20309 whole entry): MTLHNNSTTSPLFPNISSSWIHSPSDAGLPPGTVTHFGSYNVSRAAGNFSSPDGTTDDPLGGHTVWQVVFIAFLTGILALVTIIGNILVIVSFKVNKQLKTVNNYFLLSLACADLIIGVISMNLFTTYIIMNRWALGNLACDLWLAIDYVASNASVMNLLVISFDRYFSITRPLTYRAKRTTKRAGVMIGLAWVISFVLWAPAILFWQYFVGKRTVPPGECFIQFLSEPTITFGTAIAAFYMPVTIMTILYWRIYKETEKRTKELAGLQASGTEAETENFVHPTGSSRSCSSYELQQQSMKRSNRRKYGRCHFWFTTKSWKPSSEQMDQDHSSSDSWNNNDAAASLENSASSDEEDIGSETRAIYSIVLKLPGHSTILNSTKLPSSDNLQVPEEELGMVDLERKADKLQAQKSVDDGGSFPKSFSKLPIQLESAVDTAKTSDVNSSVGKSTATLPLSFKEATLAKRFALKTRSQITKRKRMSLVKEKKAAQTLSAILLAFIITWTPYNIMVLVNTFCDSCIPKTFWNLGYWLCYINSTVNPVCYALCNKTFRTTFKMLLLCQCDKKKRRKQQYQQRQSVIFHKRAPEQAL
Chain of Bradykinin B1 (P46663 whole entry): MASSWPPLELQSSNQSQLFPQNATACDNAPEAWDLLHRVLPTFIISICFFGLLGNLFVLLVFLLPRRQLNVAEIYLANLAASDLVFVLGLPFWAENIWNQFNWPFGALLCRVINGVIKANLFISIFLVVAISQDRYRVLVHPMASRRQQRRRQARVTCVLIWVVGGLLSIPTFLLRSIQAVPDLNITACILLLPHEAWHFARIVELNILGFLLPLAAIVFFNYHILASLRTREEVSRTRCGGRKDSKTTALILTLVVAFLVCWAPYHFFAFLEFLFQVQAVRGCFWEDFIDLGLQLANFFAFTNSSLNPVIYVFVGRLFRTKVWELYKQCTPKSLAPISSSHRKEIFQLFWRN
Chain of ERK2 (P28482 whole entry, species assumed): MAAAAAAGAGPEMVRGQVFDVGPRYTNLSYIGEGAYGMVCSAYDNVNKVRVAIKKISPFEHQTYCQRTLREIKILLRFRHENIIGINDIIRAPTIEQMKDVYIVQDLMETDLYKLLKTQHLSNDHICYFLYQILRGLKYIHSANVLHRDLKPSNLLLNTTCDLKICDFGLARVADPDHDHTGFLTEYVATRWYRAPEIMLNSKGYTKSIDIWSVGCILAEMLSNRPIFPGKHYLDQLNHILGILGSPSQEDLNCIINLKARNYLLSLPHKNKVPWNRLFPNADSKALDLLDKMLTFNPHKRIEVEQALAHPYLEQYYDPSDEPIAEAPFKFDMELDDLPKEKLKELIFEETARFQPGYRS
Chain of Cannabinoid CB1 (P21554 whole entry): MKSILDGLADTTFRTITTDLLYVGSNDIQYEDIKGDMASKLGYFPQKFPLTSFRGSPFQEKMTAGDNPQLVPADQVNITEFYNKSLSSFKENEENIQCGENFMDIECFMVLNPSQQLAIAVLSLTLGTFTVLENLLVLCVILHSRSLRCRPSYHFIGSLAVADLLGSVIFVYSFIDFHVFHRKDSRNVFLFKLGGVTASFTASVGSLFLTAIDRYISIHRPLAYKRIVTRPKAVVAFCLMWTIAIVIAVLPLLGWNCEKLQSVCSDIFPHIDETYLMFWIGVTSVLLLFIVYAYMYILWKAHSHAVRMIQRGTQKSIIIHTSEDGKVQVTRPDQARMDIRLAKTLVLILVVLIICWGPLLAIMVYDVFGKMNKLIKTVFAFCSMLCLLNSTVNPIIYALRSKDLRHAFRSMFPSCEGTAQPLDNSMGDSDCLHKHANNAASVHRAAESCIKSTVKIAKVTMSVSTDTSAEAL
Chain of Muscarinic M1 (P11229 whole entry): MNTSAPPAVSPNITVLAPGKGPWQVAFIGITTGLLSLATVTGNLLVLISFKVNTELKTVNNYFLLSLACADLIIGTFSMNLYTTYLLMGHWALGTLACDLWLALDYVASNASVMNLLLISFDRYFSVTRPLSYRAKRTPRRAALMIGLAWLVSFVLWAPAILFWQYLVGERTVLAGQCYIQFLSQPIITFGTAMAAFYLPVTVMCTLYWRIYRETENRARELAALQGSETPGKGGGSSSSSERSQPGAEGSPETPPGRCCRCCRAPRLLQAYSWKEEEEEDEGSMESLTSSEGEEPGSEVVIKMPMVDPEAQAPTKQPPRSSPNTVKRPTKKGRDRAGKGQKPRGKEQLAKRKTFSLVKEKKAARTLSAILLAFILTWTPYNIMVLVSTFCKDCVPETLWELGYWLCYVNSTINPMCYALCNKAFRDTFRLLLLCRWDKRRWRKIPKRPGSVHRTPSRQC

For `Nc1ccc(-c2ccc3ncc4c(=O)[nH]c(=O)n(-c5cccc(C(F)(F)F)c5)c4c3n2)cn1` [Compound 5, 9-(6-aminopyridin-3-yl)-1-(3-(trifluoromethyl)phenyl)pyrimido[5,4-c][1,5]naphthyridine-2,4(1H,3H)-dione], the IC50 on ERK2 and on IRAK4 was above 10000 nM each time. Besides, the inhibition at 10 µM on Adrenergic α2A is 19%; at Muscarinic M1 it was 18%; at Muscarinic M3, 13%; on Cannabinoid CB1, 25%; on Bradykinin B1, 0%; at Adrenergic α1D it was 9%. In addition, the “Inhibitory rate (%), Nicotinic Acetylcholine” value with Nicotinic Acetylcholine was 7%. In addition, in the test with Phorbol Ester, the “Inhibitory rate (%), Phorbol Ester” value was found to be 27%.

In general, IC50 refers to the point on the concentration scale where inhibition reaches its midpoint.
